Tests used:
[1] = system: IL-6; test: ELISA of IL-6 production in LPS-stimulated THP-1 cells; format: cell-based, human; details: for Effect on IL-6 level: 10 µM, compared to LPS (+)-stimulated group, THP-1 cells; for IC50: Homo sapiens, THP-1, 18 h, LPS-stimulated (10 ng/mL) THP-1 cells, 1, 5, 10, 20 µM, 18 h
Method: (§1) The logarithmic growth phase of THP-1 cells was achieved by seeding in 96-well plates at a density of 5 × 10^4 cells/well and differentiated for 24 h in the presence of PMA (0.5 μM solution in medium). After 24 h of incubation, the culture medium was removed from the 96-well plate and the cells were washed with PBS. […] The cells were pretreated with 17 limonoids at the corresponding concentration for 1 h, followed by the addition of LPS (10 ng/mL) and then incubation at 37 °C for 18 h. Finally, 50 μL of each culture supernatant solution was taken to determine the concentrations of IL-6, MCP-1, and IL-1β using the corresponding commercially available human ELISA kits following the manufacturer’s instructions. The analyte concentration in the supernatant was measured in pg/mL, and the inhibition level was expressed as a fold change compared to the LPS (−) control group. To determine the IC50 value, the dose-response data were normalized to the LPS-stimulated-only group, and the percentage of inhibition was calculated using the following formula: % Inhibition=(Absorbance of LPS+ control−Absorbance of compound treatment with LPS)/(Absorbance of LPS+ control−Absorbance of LPS− control)×100
(§2) Furthermore, the % inhibition data were interpolated into linear equations to determine the IC50 values.

[2] = system: IL-1β; test: ELISA of IL-1β production in LPS-stimulated THP-1 cells; format: cell-based, human; details: 10 µM, compared to LPS (+)-stimulated group
Method: The logarithmic growth phase of THP-1 cells was achieved by seeding in 96-well plates at a density of 5 × 10^4 cells/well and differentiated for 24 h in the presence of PMA (0.5 μM solution in medium). After 24 h of incubation, the culture medium was removed from the 96-well plate and the cells were washed with PBS. Fresh RPMI-1640 medium supplemented with 0.1% FBS and 1% Penicillin–Streptomycin was added to each well and incubated at 37 °C overnight. The cells were pretreated with 17 limonoids at the corresponding concentration for 1 h, followed by the addition of LPS (10 ng/mL) and then incubation at 37 °C for 18 h. Finally, 50 μL of each culture supernatant solution was taken to determine the concentrations of IL-6, MCP-1, and IL-1β using the corresponding commercially available human ELISA kits following the manufacturer’s instructions. The analyte concentration in the supernatant was measured in pg/mL, and the inhibition level was expressed as a fold change compared to the LPS (−) control group. To determine the IC50 value, the dose-response data were normalized to the LPS-stimulated-only group, and the percentage of inhibition was calculated using the following formula: % Inhibition=(Absorbance of LPS+ control−Absorbance of compound treatment with LPS)/(Absorbance of LPS+ control−Absorbance of LPS− control)×100
as §2

[3] = system: TLR4-dependent NF-kB activation in HEK-Blue hTLR4 cells; test: SEAP reporter gene assay, antagonist effect on LPS-stimulated TLR4-dependent NF-κB activation; format: cell-based, human; details: 20 µM, LPS 10 ng/mL, 18 h, vs. LPS stimulated-only group
Method: The SEAP Reporter Gene Assay was conducted as previously described. HEK-Blue^TM hTLR4 cells (2 × 10^4 cells/well) were seeded in 96-well plates and were serum-starved for 24 h at 37 °C in a 5% carbon dioxide atmosphere. After incubation, the culture medium was aspirated, and the cells were washed with saline. High-glucose D-MEM supplemented with 0.1% FBS and 1% penicillin-streptomycin was added and treated with or without the 17 limonoids at a concentration of 20 µM for 1 h, followed by LPS addition at a concentration of 10 ng/mL for the LPS-stimulated group. After incubation at 37 °C for 18 h, the supernatants were collected and PNPP in PBS solution (0.8 mM, 100 μL) was added, followed by 4 h of shading at 25 °C. The optical density (OD) of the samples was measured at 405 nm using a microplate reader (BioTek Cytation 5 Cell Imaging Multimode Reader, Agilent Technologies, Santa Clara, CA, USA).

[4] = system: MCP-1; test: ELISA of MCP-1 production in LPS-stimulated THP-1 cells; format: cell-based, human; details: for Effect on MCP-1 level: 10 µM, compared to LPS (+)-stimulated group, THP-1 cells; for IC50: Homo sapiens, LPS-stimulated (10 ng/mL) THP-1 cells, 1, 5, 10, 20 µM, 18 h; for MCP-1 SI (selectivity index, CC50/IC50): THP-1 CC50 / MCP-1 IC50
Method: as §1, §2

[5] = Cell viability by CCK-8, HEK-Blue hTLR4 cells; format: cell-based; details: human
Method in brief: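 CCK-8 read-out. HEK-Blue hTLR4 cells (2 × 10^4/well) serum-starved 24 h, then in high-glucose D-MEM with 0.1% FBS pretreated ±20 µM limonoids for 1 h before 10 ng/mL LPS; CCK-8 (10% v/v) added after 18 h and incubated 1 h at 37 °C. RAW264.7 viability measured likewise with CCK-8.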

[6] = system: TNF-α, IL-6, IL-1β, and MCP-1; test: ELISA of pro-inflammatory markers overall (TNF-α, IL-6, IL-1β, MCP-1) in LPS-stimulated THP-1 cells; format: cell-based; details: Homo sapiens, read-out: Overall IC50 values for the evaluated pro-inflammatory markers
Method in brief: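 PMA (0.5 μM)-differentiated THP-1 cells, rested overnight in 0.1% FBS medium, pretreated with compound 1 h, then LPS (10 ng/mL) for 18 h at 37 °C. Supernatant cytokines measured by human ELISA (pg/mL); % inhibition normalised to LPS+ and LPS− controls, IC50 by linear interpolation.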

[7] = system: phosphorylated-p38 MAPK; test: Western blotting of phosphorylated-p38 MAPK in LPS-stimulated THP-1 cells; format: cell-based, human; details: 10 µM, LPS 10 ng/mL, 18 h, compared to LPS (+) group
Method: THP-1 cells were seeded at a density of 1 × 10^6 cells/well in 24-well plates. The cells were then pretreated with a concentration of 10 µM of compounds 3, 5, 9, or 15 for 1 h. Subsequently, LPS (10 ng/mL) was added to the cells, which were incubated for 18 h. The protein concentrations were determined using a bicinchoninic acid (BCA) assay kit.
For Western blot analysis, proteins were separated by SDS-PAGE and transferred onto a polyvinylidene fluoride (PVDF) membrane. The membranes were blocked with 2.5% BSA in Tris-buffered saline-Tween (TBST) for 1 h at room temperature. After three washes with TBST, the membranes were incubated with a diluted primary antibody solution (anti-phosphorylated-p38 MAPK or anti-p38 MAPK) at a 1:1000 dilution for 1 h at room temperature. After three washes with TBS-T, the membranes were incubated with a secondary antibody conjugated to horseradish peroxidase (HRP; 1:4000 dilution) for 30 min at room temperature and subsequently detected by chemiluminescence. Finally, the bands were visualized and quantified using an ImageQuant 800 GxP system (Cytiva, MA, USA). The results were expressed as ratios relative to the reference protein β-actin.

[8] = in vitro; format: cell-based; details: mouse
[9] = Viability Cell (%) HEK-Blue hTLR4 LPS-Induced (10 ng/mL)
[10] = Viability Cell (%) HEK-Blue hTLR4 Without LPS

Row | SMILES | Effect on IL-6 level [1] | IC50 [1] | Effect on IL-1β level [2] | Inhibition of SEAP release (NF-κB activity inhibition) [3] | Effect on MCP-1 level [4] | IC50 [4] | MCP-1 SI (selectivity index, CC50/IC50) [4] | viability at 18 h, 20 µM [5, 9] | viability at 18 h, 20 µM [5, 10] | IC50 [6] | Effect on p-p38 MAPK levels [7] | viability at 5 µM [8] | viability at 10 µM [8] | viability at 20 µM [8] | IL-6 SI (selectivity index, CC50/IC50) ([1]; THP-1 CC50 / IL-6 IC50)
1 | CC(=O)O[C@H]1[C@@H](OC(C)=O)[C@@]2(C)C3=CC[C@@H](c4ccoc4)[C@]3(C)CC[C@@H]2[C@@]2(C)C=CC(=O)C(C)(C)[C@H]12 [Compound 5, dysobinin] | significantly reduced | 1.64 ± 0.97 µM | significantly reduced | significantly inhibited SEAP release | significantly reduced | 0.87 µM | 16.76 | 23.6 ± 2.61% | 43.3 ± 6.02% | < 20 µM | significantly suppressed | 83.6 ± 8.91% | 84.29 ± 0.28% | 3.19 ± 1.24% | 
2 | CC(=O)O[C@H]1[C@@H](O)[C@@]2(C)C3=CC[C@@H](c4ccoc4)[C@]3(C)CC[C@@H]2[C@@]2(C)C=CC(=O)C(C)(C)[C@H]12 [Compound 3, 6α-O-acetyl-7-deacetylnimocinol] | significantly reduced | 3.06 µM | significantly reduced | significantly inhibited SEAP release | significantly reduced | 2.11 µM | 9.61 | 6.79 ± 6.22% | 20.7 ± 3.08% | < 20 µM | significantly suppressed | 90.3 ± 5.24% | 91.4 ± 8.26% | 70.2 ± 2.29% | 6.63
